Assay: differential scanning calorimetry (DSC), heat flow as a function of temperature
Type: physicochemical
Protocol: This is also an exothermic event. Upon heating, the cryoablation gel melts at about −10° C.
An exothermic event begins as the sample is cooled to about −18° C.; and the phase changing event is more than 10° C. wide. This process is more than 4×more exothermic than the crystallization of cryoablation gel, showing that the water crystallization process is much more chaotic with high entropy and takes a while to reach an ordered state. On the contrary, the cryoablation gel is a more highly ordered substance and the crystallization event produces less energy due to the relatively lower entropy.

Question: Which “temperature of phase change (exothermic event) on cooling” value (cooling) does the source give for `O` [water] here?
Answer: about −18 °C

Question: What about the “width of phase changing event” value (cooling) of the same compound?
Answer: more than 10 °C

Question: And the “exothermicity of crystallization relative to cryoablation gel” value (water versus cryoablation gel)?
Answer: more than 4 ×

Reference: US20240293164A1, “METHODS AND COMPOSITIONS OF CRYOABLATION WITH DRUG DELIVERY” (Theromics, Inc., priority 2023, published 2024)
